{"source": "patent US20100035848A1", "about": "“THERAPY FOR DISORDERS OF THE PROXIMAL DIGESTIVE TRACT” (priority 2008, published 2010)", "key": {"ACE2 [1]": {"molecular_target": "T1, ACE2 (Rattus norvegicus, UniProt Q5EGZ1)", "T1 construct": "from tissue; host or cells: rat stomach (excluding forestomach) homogenate", "T1 sequence (Q5EGZ1 18-805)": "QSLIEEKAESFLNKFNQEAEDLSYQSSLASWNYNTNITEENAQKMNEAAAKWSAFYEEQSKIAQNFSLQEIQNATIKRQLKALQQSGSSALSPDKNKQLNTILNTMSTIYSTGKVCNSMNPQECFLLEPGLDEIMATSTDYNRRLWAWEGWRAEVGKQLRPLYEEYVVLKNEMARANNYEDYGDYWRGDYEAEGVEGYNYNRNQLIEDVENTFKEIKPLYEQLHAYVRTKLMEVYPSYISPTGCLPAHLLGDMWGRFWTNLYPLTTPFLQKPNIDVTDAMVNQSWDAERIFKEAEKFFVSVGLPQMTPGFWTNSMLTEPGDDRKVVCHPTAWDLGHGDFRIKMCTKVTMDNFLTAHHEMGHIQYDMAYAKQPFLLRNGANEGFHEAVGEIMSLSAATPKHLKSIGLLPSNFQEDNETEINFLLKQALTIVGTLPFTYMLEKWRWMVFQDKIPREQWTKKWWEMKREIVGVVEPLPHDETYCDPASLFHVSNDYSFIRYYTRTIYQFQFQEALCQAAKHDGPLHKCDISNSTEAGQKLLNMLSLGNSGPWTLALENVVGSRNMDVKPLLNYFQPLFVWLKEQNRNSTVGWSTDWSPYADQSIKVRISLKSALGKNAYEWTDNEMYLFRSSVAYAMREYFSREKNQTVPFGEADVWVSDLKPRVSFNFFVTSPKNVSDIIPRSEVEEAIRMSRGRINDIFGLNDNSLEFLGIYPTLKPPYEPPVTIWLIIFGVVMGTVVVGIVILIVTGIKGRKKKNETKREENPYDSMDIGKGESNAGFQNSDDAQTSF", "assay": "Stomach tissue homogenates spiked with excess GL1001, ACE2 fluorescence assay", "type": "biochemical", "experimental": "(§1) Three hours after diclofenac treatment, all animals were sacrificed and stomachs were removed and imaged to determine the severity of gastric damage. Additionally, stomach tissue samples were taken to assess disease activity and pharmacodynamic effects. Gastric damage scores were determined from photographic images (Ma & Wallace (2003) Am. J. Physiol. Gastrointest. Liver Physiol. 279; 341-346). Removed stomachs were opened along the greater curvature, pinned out on a wax block, and photographed along a 25 mm ruler reference with a digital 35 mm camera. The lesion area was then determined using enlarged images and computer software (www.scioncorp.co/pages/scion_image_windows.htm) that allows superimposed drawing of the perimeter of a wound and calculation of the area based on the ruler reference. Stomach samples (excluding forestomach) were used for measurements of PGE2 concentration, MPO activity and ACE2 activity. […] Concentration of PGE2 from stomach tissue samples was performed as described by Souza et al. (2003), supra, and quantification was obtained by LC-MS. […] Last, the extent of inhibition of ACE2 activity was determined to establish whether GL1001 was effective in inhibiting its ACE2 target in stomach tissues. […]"}, "[2]": {"tested_on": "LPS-induced NF-κB-dependent transcription", "assay": "Luciferase assay of organs extracted from LPS-treated NF-κB::Luc mice", "type": "in vivo, mouse", "source_text": "For luciferase assays, organs were extracted and snap-frozen in liquid nitrogen. All tissue samples were placed in lysis buffer with inhibitors (Passive Lysis Buffer (Promega) and Complete Mini Protease Inhibitor Cocktail (Roche, Indianapolis, Ind.)), and were homogenized using a Handishear hand-held tissue homogenizer (VirTis, Gardiner, N.Y.). Tissue homogenates were centrifuged and clarified lysates were used for luminometer assays and western blots. For the luminometer assays, Luciferase Assay Substrate (Luciferase Assay System, Promega) was prepared as indicated by the manufacturer and placed in disposable cuvettes. […] Background luminescence readings were obtained and the background readings were subtracted from the luminescent data. Protein concentrations were determined using the BCA Protein Assay Kit (Pierce, Rockford, Ill.) following the manufacturer's protocols and analyzed using a VERSAmax tunable microplate reader and associated Softmax Pro version 3.1.2 software (Molecular Devices, Sunnyvale Calif.). The luminescence for each of the protein lysates was calculated as arbitrary units of light per microgram of protein. […]\nGL1001 was further tested for in vivo anti-inflammatory activity by examining its effects on bacterial LPS-induced NF-κB dependent transcription in NF-κB::Luc mice. […] Luciferase signal was quantitated from several regions of interest. […]"}, "ACE2 [3]": {"molecular_target": "T1, ACE2", "assay": "Acute diclofenac-induced gastric toxicity in rats: ACE2 activity in stomach tissue", "type": "in vivo", "conditions": "Group C: GL1001 oral before diclofenac 50 mg/kg; vehicle-diclofenac Group B 880 ± 39; p<0.0001", "experimental": "Male Wistar rats were deprived of food but not water for 16 hours prior to oral administration of GL1001 90 mg/kg, incubated for 30 minutes and then given oral diclofenac 50 mg/kg. Each group consisted of 6 rats. As a negative control, one group received vehicle pretreatment, and then received vehicle instead of diclofenac. A positive control group received PGE2 100 μg/kg orally, 30 minutes prior to administration of diclofenac. All treatments were administered by oral gavage.\nas §1, with “tissues. The ACE2 activity assay is similar to the method of Vickers et al. (2002) J. Biol. Chem. 277:14838-14843, wherein purified recombinant ACE2 (100 pM) and a quenched fluorescent substrate (100-150 μM APK (7-methoxycoumarin-4-yl)acetyl-Ala-Pro-Lys (2,4-dinitrophenyl)) are used in end-point fluorescence reactions (excitation 320 nm, emission 405 nm).” for “tissues.”\nData are expressed as means with standard errors. […]"}}, "note": "“And” between values parts separate entries of the source, which are not always exact repeats. Identical values can stand only once."}
{"smiles": "CC(C)C[C@H](N[C@@H](Cc1cncn1Cc1cc(Cl)cc(Cl)c1)C(=O)O)C(=O)O", "note": "[GL1001, (S,S)-2-[1-carboxy-2-[3-(3,5-dichlorobenzyl)-3H-imidazol-4-yl]-ethylamino]-4-methylpentanoic acid]", "values": [{"measurement": "further inhibition of ACE2 on spiking", "setting": "ACE2 [1]; tissue samples of Group C (dosed in vivo with GL1001) spiked with excess GL1001", "value": "no further inhibition"}, {"measurement": "decrease in the fluorescence signal (ACE2 specific activity)", "setting": "ACE2 [1]; tissue samples of Groups A and B spiked with vast excess of GL1001 (>IC90)", "value": "40-50%"}, {"measurement": "reduction of LPS-induced NF-κB-dependent transcription in stomachs", "setting": "[2]; 0.5 mg/kg LPS and GL1001 30 mg/kg vs LPS alone, FIG. 5", "value": "about 37 fold"}, {"measurement": "decrease in LPS-induced NF-κB signaling in other organs", "setting": "[2]; 0.5 mg/kg LPS and GL1001 30 mg/kg, pancreas, uterus, liver, kidney, spleen, small and large intestine, lymph nodes, cecum, ovary, brain, heart, lung", "value": "no statistically significant decrease"}, {"measurement": "Gastric ACE2 activity", "setting": "ACE2 [3]", "value": "436 pmol/mg and 436 ± 20 pmol/mg"}]}
